The values below are quoted from earlier work in US8470371B2, “Polymeric micellar clusters and their uses in formulating drugs” (priority 2006, dated 2013).

The conditions of data set [1]: drug: propofol; literature.
For data set [2] the following is noted: comparator amphiphiles.

For the compound 2-hydroxypropyl-β-cyclodextrin, in data set [1], the “Drug Concentration” value is 38.7 g/L and the “Moles drug encapsulated per mole of polymer” value is 0.75 [10].
Consider `CC(C)c1cccc(C(C)C)c1O` [Propofol], for which the log partition coefficient (Log P) (usually the decadic logarithm of the partition coefficient of the neutral form, usually between octanol and water) is 4.1.
For the compound polysorbate 20, in data set [2], the CMC is 53 µM and the HLB was 16.7.
For `C[C@]12C=CC(=O)C=C1CC[C@@H]1[C@@H]2[C@@H](O)C[C@@]2(C)[C@H]1CC[C@]2(O)C(=O)CO` [Prednisolone], the “Log P” value was 1.4.
